These results are taken from US12156523B2 (priority 2017, dated 2024).

What all share (assay type): in vivo
One data set deals with rice (cultivar: Jikkoku). Description: Barrier to growth of rice (phytotoxicity, Example 18). The settings on record: untreated plant length set as 100; 0.2 mg/mL acetone solution diluted 10-fold, 0.25 mL per 1 mL of soil; first leaf stage; comparative compounds (Table 38). The protocol:
The acetone solutions of each example compound and compounds described in the prior art documents shown in the below-mentioned Table 38 (hereinafter, referred to as compounds of Comparative Examples 1 to 5, respectively) were prepared such that the content thereof became 0.2 mg/mL, and then diluted to 10-fold with water to be subjected to conducting test. 0.25 mL of the diluted solution per 1 mL of the soil was made to be absorbed in the soil. Then, rice seeds (cultivar: Jikkoku) subjected to forcing to germination were seeded in the soil to be cultivated in plant cultivation chambers. The plant length of the rice grown to the first leaf stage was measured, and the ratio of the plant length, relative to the untreated plant length set as 100, (hereinafter, referred to as “the ratio of plant length relative to untreated plant length”) was calculated. The presence or absence of the barrier to growth was determined from the calculated ratio.

Data set [1] has as its system Pyricularia oryzae. The experiment in a line: whole plant or invertebrate. To be noted: soil, read-out: Control value (number of lesions at the second leaf).
The test system of data set [2] is Pyricularia oryzae. Description: whole plant or invertebrate. The settings on record: foliar, read-out: Control value (number of lesions at the second leaf).
Data set [3] deals with cucumber bacterial spot disease. Description: Activity against cucumber bacterial spot disease (Example 17). The settings on record: cucumber cv. Natsusuzumi; wettable powder diluted 6666-fold, 20 mL per pot absorbed in the soil; 28 days after settled planting. How it is done:
Wettable powders of the example compound 1-134 were prepared in accordance with the below-mentioned Preparation Example 1. The wettable powders were diluted to 6666-fold with water, and then 20 mL of the diluted solution per pot was applied to cucumber (cultivar: Natsusuzumi) cultivated to the third leaf stage in pots by making the diluted solution to be absorbed in the soil, and then the cucumber was subjected to settled planting. 28 days after the settled planting, the number of lesions formed at the 11th true leaves to the 20th true leaves were counted. The control value was calculated from the obtained number of lesions in accordance with the below-mentioned mathematical formula. Control value=((the number of lesions at untreated plants −the number of lesions at treated plants)/the number of lesions at untreated plants)×100

Another data set deals with wheat brown rust. Description: Activity against wheat brown rust (Example 14). To be noted: wettable powder (Preparation Example 1) diluted 1000-fold, sprayed twice at 1 L/m^2, examined approx. 4 weeks after second spraying. How it is done:
Wettable powders of the example compound 1-135 were prepared in accordance with the below-mentioned Preparation Example 1, followed by diluting the wettable powders to 1000-fold with water to prepare spraying liquids. The prepared spraying liquid was sprayed onto wheat twice at the blooming stage and 10 days prior to the blooming stage at a liquid volume of 1 L/m^2. The lesions on the flag leaf were examined in accordance with the below-mentioned indexes approximately 4 weeks after the second spraying application. The severity was calculated based on the indexes, and the control value was calculated from the obtained severity in accordance with the below-mentioned mathematical formula.
0: No lesions were observed.
1: 1 to 3 lesions were observed.
2: 4 to 10 lesions were observed.
3: 11 to 20 lesions were observed.
4: 21 or more lesions were observed, and the area of lesions was less than half of the leaf surface.
5: 21 or more lesions were confirmed, and the area of lesions was half or more of the leaf surface. Control value=((the severity at untreated plants −the severity at treated plants)/the severity at untreated plants)×100

As for `O=C(O)c1cc(Cl)nc(Cl)c1` [Comparative Example 1], in the data set on rice (cultivar: Jikkoku), the “Ratio of plant length relative to untreated plant length” value amounted to 49.

Regarding `C#CCOC(=O)c1cc(Cl)nc(Cl)c1` [Comparative Example 2], the “Ratio of plant length relative to untreated plant length” value in the data set on rice (cultivar: Jikkoku) amounted to 52.

Take `O=C(NCCc1ccccc1)c1cc(Cl)nc(Cl)c1` [Comparative Example 3]: in the data set on rice (cultivar: Jikkoku), the “Ratio of plant length relative to untreated plant length” value came to 45.

As to `O=C(COC(=O)c1cc(Cl)nc(Cl)c1)c1ccccc1` [Comparative Example 4], in the data set with rice (cultivar: Jikkoku), the “Ratio of plant length relative to untreated plant length” value came out at 64.

Consider `O=C(OCc1ccc(Cl)nc1)c1cc(Cl)nc(Cl)c1` [Comparative Example 5], for which the “Ratio of plant length relative to untreated plant length” value in the data set with rice (cultivar: Jikkoku) came out at 66.

With `CC(C)Oc1cccc(NC(=O)c2cc(F)nc(F)c2)c1` [Example 1-134], the pest or weed control at 10 µg/mL in the data set with Pyricularia oryzae [1] was not below 80%. For the same compound, in the data set with Pyricularia oryzae [2], the pest or weed control at 25 ppm was not below 80% and the pest or weed control at 200 ppm was not below 80%. Also, the “Control value (number of lesions at 11th to 20th true leaves)” value in data set [3] is recorded as not below 60.

Consider `COc1cccc(NC(=O)c2cc(F)nc(F)c2)c1` [Example 1-135], for which the pest or weed control at 10 µg/mL in the data set with Pyricularia oryzae [1] was not below 80%. Moreover, in the data set with Pyricularia oryzae [2], the pest or weed control at 25 ppm is not below 80% and the pest or weed control at 200 ppm is not below 80%. For the same compound, the “Control value (severity on the flag leaf)” value in the data set with wheat brown rust was not below 50.

Turning to `O=C(Nc1cccc(C(F)(F)F)c1)c1cc(F)nc(F)c1` [Example 1-191], the pest or weed control at 10 µg/mL in the data set with Pyricularia oryzae [1] is not below 80%. For the same compound, the pest or weed control at 200 ppm in the data set on Pyricularia oryzae [2] is not below 80%.

Take `O=C(Nc1cccc(O)c1)c1cc(F)nc(F)c1` [Example 1-193]: the pest or weed control at 10 µg/mL in the data set on Pyricularia oryzae [1] was not below 80%. For the same compound, the pest or weed control at 200 ppm with Pyricularia oryzae [2] was not below 80%.

As to `O=C(Oc1cccc2ccccc12)c1cc(F)nc(F)c1` [Example 1-202], the pest or weed control at 10 µg/mL with Pyricularia oryzae [1] was not below 80%. Further, the pest or weed control at 200 ppm with Pyricularia oryzae [2] is not below 80%.

On to `N#Cc1ccc(OC(=O)c2cc(F)nc(F)c2)cc1` [Example 1-204], for which the pest or weed control at 10 µg/mL with Pyricularia oryzae [1] was not below 80%. The pest or weed control at 200 ppm in the data set with Pyricularia oryzae [2] is not below 80%.

With `COc1ccccc1OC(=O)c1cc(F)nc(F)c1` [Example 1-210], in the data set on Pyricularia oryzae [1], the pest or weed control at 10 µg/mL was not below 80%. Further, the pest or weed control at 200 ppm with Pyricularia oryzae [2] was not below 80%.

With `Fc1cc(C2=NCCO2)cc(F)n1` [Example 4-4], in the data set on Pyricularia oryzae [1], the pest or weed control at 10 µg/mL was not below 80%. Moreover, in the data set with Pyricularia oryzae [2], the pest or weed control at 200 ppm was not below 80%.
